PubChem BioAssay AID540252 (Sanford-Burnham Center for Chemical Genomics, 2011)
pIC50: −log10 of the molar value. Active and inactive are the calls of the source. No rule for the calls is given here.

biological target: glucose-6-phosphate dehydrogenase-6-phosphogluconolactonase (Plasmodium falciparum 3D7); test: PfG6PD enzyme inhibitors, direct NADPH readout, dose response, orthogonal assay, biochemical, end-point NADPH detection (AID 540252); conditions: purified PfG6PD enzyme

Question: For `Cc1cc(C(=O)O)ccc1-n1c(C)cc(C=C2C(=O)c3ccccc3C2=O)c1C`, which IC50 is on record?
Answer: > 80 µM (inactive)

Question: How did the pIC50 turn out when `CN(CCO)c1cc(Sc2nc3ccccc3s2)c2nonc2c1[N+](=O)[O-]` was run?
Answer: 4.62

Question: `O=C1C(c2cc(=O)c3ccccc3[nH]2)=C(O)c2ccccc21` was tested. Which IC50 did it give?
Answer: > 80 µM (inactive)

Question: How did the IC50 turn out when `COc1cccc(C=Nc2cc(C(C)C)c(O)cc2C)c1O` was run?
Answer: > 80 µM (inactive)

Question: `COc1ccc(C(=O)c2c(C(F)(F)F)oc3c2C(=O)c2ccccc2C3=O)cc1OC` was tested. Which IC50 did it give?
Answer: > 80 µM (inactive)

Question: How did the pIC50 turn out when `Oc1ccc(C2C[C@H]3CC[C@@H]2C3)cc1O` (stereo partly specified) was run?
Answer: 4.50

Question: For `Cc1cccc(OCC(=O)NCC(=O)N/N=C/c2ccccc2)c1`, which IC50 is on record?
Answer: > 80 µM (inactive)

Question: Which IC50 does the source give for `O=C1C(Cl)=C(NCCc2ccccc2)C(=O)c2ccccc21` here?
Answer: > 80 µM (inactive)

Question: `Cc1cc(C)c(NC(=S)NCC2CCN(C(C)c3ccccc3)C2)c(C)c1` (stereo unspecified) was tested. Which pIC50 did it give?
Answer: 4.19

Question: `c1ccc(-c2cn3c(n2)CCc2ccc4cccnc4c2-3)cc1` was tested. Which IC50 did it give?
Answer: > 80 µM (inactive)

Question: With `CC(C)c1nnc(NC(=O)c2sc3ccccc3c2Cl)s1` as the compound, how does the IC50 read?
Answer: > 80 µM (inactive)

Question: Which IC50 does the source give for `Cc1ccsc1/C=N\NC(=O)CC(=O)NCc1ccccc1` here?
Answer: > 80 µM (inactive)

Question: How did the IC50 turn out when `CC1(OC(=O)C2CCCC2)C(=O)C=C2C=C(c3ccsc3)N(CC3CC3)C=C2C1=O` (stereo unspecified) was run?
Answer: > 80 µM (inactive)

Question: For `Cc1ccc2nc3sc(C(=O)N4CCOCC4)c(N)c3cc2c1`, which IC50 is on record?
Answer: > 80 µM (inactive)

Question: For `COc1ccccc1NS(=O)(=O)c1cc(NC(=O)c2ccc(Cl)nc2)ccc1N1CCCC1`, which IC50 is on record?
Answer: > 80 µM (inactive)

Question: Which IC50 does the source give for `CCCCOc1ccc(Cc2n[nH]c(=S)n2N)cc1` here?
Answer: > 80 µM (inactive)

Question: `Cn1sc2ccccc2c1=O` was tested. Which pIC50 did it give?
Answer: 4.28

Question: For `Cc1no[n+]([O-])c1COc1cccc(/C=N/Nc2nncn2N)c1`, which IC50 is on record?
Answer: > 80 µM (inactive)

Question: How did the IC50 turn out when `CCS(=O)(=O)N1CCN(c2ccc([N+](=O)[O-])c(NC(C)c3ccccc3)c2)CC1` (stereo unspecified) was run?
Answer: > 80 µM (inactive)

Question: How did the IC50 turn out when `c1cncc(CNc2ccc3c(c2)OCO3)c1` was run?
Answer: > 80 µM (inactive)

Question: How did the IC50 turn out when `Cc1nnc(N/N=C/c2ccc(-c3ccccc3F)o2)n1N` was run?
Answer: > 80 µM (inactive)

Question: `S=C(NN=Cc1ccccn1)N(Cc1ccccn1)Cc1ccccn1` was tested. Which IC50 did it give?
Answer: > 80 µM (inactive)

Question: How did the IC50 turn out when `C=CCOc1c(Cl)cc(CNc2ccc3[nH]c(=O)[nH]c3c2)cc1OC` was run?
Answer: > 80 µM (inactive)

Question: For `COc1ccc(N=C2C(=S)N(c3ccc(OC)cc3)C(=NS(=O)(=O)c3ccccc3)N2c2ccccc2)cc1`, which IC50 is on record?
Answer: > 80 µM (inactive)

Question: With `CCc1cc(-c2n[nH]c(C)c2-c2nc3ccccc3n2C)c(O)cc1O` as the compound, how does the IC50 read?
Answer: > 80 µM (inactive)

Question: With `COC1=C(N)C(=O)c2nc(C)ccc2C1=O` as the compound, how does the IC50 read?
Answer: > 80 µM (inactive)

Question: `Cc1ccc(S(=O)c2ccc([N+](=O)[O-])c3nonc23)cc1` (stereo unspecified) was tested. Which pIC50 did it give?
Answer: 4.22

Question: With `CC1=CC(C)(C)Nc2ccc(OC(=O)CN3C(=O)CCC3=O)cc21` as the compound, how does the IC50 read?
Answer: > 80 µM (inactive)

Question: For `CCC1(CC)Cc2ccccc2C(N)=C1C#N`, which IC50 is on record?
Answer: > 80 µM (inactive)

Question: With `Cc1ccc(C(=O)NCC(=O)NCC(=O)OCC(=O)c2ccc([N+](=O)[O-])cc2)cc1` as the compound, how does the pIC50 read?
Answer: 4.32

Question: With `Cc1ccnc(-n2sc3ccccc3c2=O)n1` as the compound, how does the IC50 read?
Answer: > 80 µM (inactive)

Question: How did the IC50 turn out when `Cc1ccc(-c2c(C(=O)N/N=C/c3cccs3)nnn2-c2nonc2N)cc1` was run?
Answer: > 80 µM (inactive)

Question: `CCOC(=O)c1c(C2COc3ccccc3O2)csc1NC(=O)c1ccco1` (stereo unspecified) was tested. Which IC50 did it give?
Answer: > 80 µM (inactive)

Question: `O=c1c2ccccc2sn1-c1ccc(S(=O)(=O)N2CCCC2)cc1` was tested. Which pIC50 did it give?
Answer: 4.44

Question: `O=C(CSc1nc2ccc(Cl)cc2[nH]1)NC1CCCc2ccccc21` (stereo unspecified) was tested. Which IC50 did it give?
Answer: > 80 µM (inactive)

Question: For `Cc1ccc(Cl)cc1NC1=C/C(=N\S(=O)(=O)c2cccs2)c2ccccc2C1=O`, which IC50 is on record?
Answer: > 80 µM (inactive)

Question: For `CN(C)c1nc(=NCc2cccs2)ss1`, which IC50 is on record?
Answer: > 80 µM (inactive)

Question: How did the IC50 turn out when `CCOc1ccc2ccccc2c1/C=N/NC(=O)c1ccncc1` was run?
Answer: > 80 µM (inactive)

Question: Which IC50 does the source give for `Cc1ccc(/C=C/C(=O)N2CCN(S(=O)(=O)c3ccc(C)c(C)c3)CC2)o1` here?
Answer: > 80 µM (inactive)

Question: Which IC50 does the source give for `O=[N+]([O-])c1ccc(-[n+]2ccc3ccccc3c2)c([N+](=O)[O-])c1` here?
Answer: > 80 µM (inactive)

Question: How did the IC50 turn out when `c1cc(CNc2ccc3c(c2)OCO3)ccn1` was run?
Answer: > 80 µM (inactive)
